By Ki is commonly meant a dissociation constant, usually derived from enzyme kinetics or from competition with a known ligand. By IC50 is commonly meant the concentration at which inhibition is half-maximal.

The text below walks through data of patent US11780849B2, “Imino sulfanone inhibitors of ENPP1” (Volastra Therapeutics, Inc., priority 2020, dated 2023).

Test [1] deals with T1, ENPP-1 ECD (Homo sapiens (Human), UniProt P22413). Briefly: Assay 2: inhibition of ENPP1 hydrolysis of 2′,3′-cGAMP (AMP-Glo, […] enzyme).
T1 sequence (P22413 98-925): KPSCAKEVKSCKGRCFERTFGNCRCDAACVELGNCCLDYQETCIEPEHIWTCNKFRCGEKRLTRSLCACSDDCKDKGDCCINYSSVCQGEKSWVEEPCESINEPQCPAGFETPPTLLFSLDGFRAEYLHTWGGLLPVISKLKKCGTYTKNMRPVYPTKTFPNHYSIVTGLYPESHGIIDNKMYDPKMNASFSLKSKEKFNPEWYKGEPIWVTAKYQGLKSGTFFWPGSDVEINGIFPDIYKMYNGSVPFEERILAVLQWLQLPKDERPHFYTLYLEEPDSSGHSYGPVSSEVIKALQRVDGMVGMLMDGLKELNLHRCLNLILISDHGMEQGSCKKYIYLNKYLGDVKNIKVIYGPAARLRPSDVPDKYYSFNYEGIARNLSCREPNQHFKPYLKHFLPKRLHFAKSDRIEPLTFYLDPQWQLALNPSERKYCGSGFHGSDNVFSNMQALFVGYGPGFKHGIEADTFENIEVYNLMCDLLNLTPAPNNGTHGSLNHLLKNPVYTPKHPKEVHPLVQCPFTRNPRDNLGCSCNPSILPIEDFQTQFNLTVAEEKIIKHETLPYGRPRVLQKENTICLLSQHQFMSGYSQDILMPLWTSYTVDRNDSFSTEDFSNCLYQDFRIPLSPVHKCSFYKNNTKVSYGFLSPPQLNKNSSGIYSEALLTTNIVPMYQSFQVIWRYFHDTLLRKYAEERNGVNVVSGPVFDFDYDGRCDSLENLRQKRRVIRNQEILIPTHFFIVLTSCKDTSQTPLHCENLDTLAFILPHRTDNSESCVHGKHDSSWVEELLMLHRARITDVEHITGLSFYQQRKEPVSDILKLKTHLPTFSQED
Experimental: Assay 2: Compared to the conditions in Assay 1, this assay has a larger dynamic range and ensures the system is under steady-state conditions by reducing the enzyme concentration in the assay.
Test compounds were plated in a 3× dilution scheme in a 384 well plate. […] AMP Detection solution (10 μL) was added to each well, the plate centrifuged and incubated for 60 min.
For test [2], the target named is T1, ENPP-1 ECD. Briefly: Assay 1: inhibition of ENPP1 hydrolysis of 2′,3′-cGAMP (AMP-Glo, […] enzyme).
Experimental: Assay 1: Test compounds were plated in a 3× dilution scheme in a 384 well plate. […] AMP Detection solution (100 μL) was added to each well, the plate centrifuged and incubated for 60 min.
[3] abbreviates: Assay 2 (KI), ENPP1 hydrolysis of 2′,3′-cGAMP, AMP-Glo, […] ENPP-1, 24 μM cGAMP.
[4] abbreviates: Assay 2 (KI), inhibition of ENPP1 hydrolysis of 2′,3′-cGAMP, no unit in Table 18 (Table 17 legend for this assay uses nM).
Where [5] appears, read: Assay 1 (IC50), inhibition of ENPP1 hydrolysis of 2′,3′-cGAMP, no unit in Table 18 (Table 17 legend for this assay uses nM).
[6] abbreviates: read-out: Assay 1 (IC50), ENPP1 hydrolysis of 2′,3′-cGAMP, AMP-Glo.
Where [7] appears, read: Assay 1 (IC50), ENPP1 hydrolysis of 2′,3′-cGAMP, AMP-Glo.
Setting [8] is: read-out: Assay 2 (KI), inhibition of ENPP1 hydrolysis of 2′,3′-cGAMP, no unit in Table 18 (Table 17 legend for this assay uses nM).

Where two headings read alike, the source gives them in different places.

For the compound `COc1cc2nccc(Oc3ccc([S@](C)(=N)=O)cc3)c2cc1OC` [Compound 1R, (R)-(4-((6,7-dimethoxyquinolin-4-yl)oxy)phenyl)(imino)(methyl)-λ^6-sulfanone], the Ki on ENPP-1 ECD [1] (setting [3]) is more than 300 nM; on ENPP-1 ECD [1] (setting [4]) it was 330 nM. In addition, the half-maximal inhibitory concentration (IC50) against ENPP-1 ECD [2] (setting [5]) was 3200 nM; at ENPP-1 ECD [2] (setting [6]) it was more than 1000 nM.

Take `COc1ccc2c(C(=O)N3CCS(=N)(=O)CC3)ccnc2c1` [Compound 6, 1-imino-4-(7-methoxyquinoline-4-carbonyl)-1λ^6-thiomorpholin-1-one]: the results for the IC50 on ENPP-1 ECD [2] (setting [5]) and on ENPP-1 ECD [2] (setting [6]) were more than 30000 nM and more than 1000 nM, respectively.

Regarding `COc1ccc2c(Oc3ccc(S(C)(=N)=O)c(F)c3)ccnc2c1` (stereo not drawn) [Compound 10, (2-fluoro-4-((7-methoxyquinolin-4-yl)oxy)phenyl)(imino)(methyl)-λ^6-sulfanone], the Ki on ENPP-1 ECD [1] (setting [3]) was less than 3 nM; at ENPP-1 ECD [1] (setting [4]) it was 2.8 nM. Moreover, the concentration for half-maximal inhibition (IC50) against ENPP-1 ECD [2] (setting [7]) was 10 to 1000 nM; against ENPP-1 ECD [2] (setting [5]) it was 23 nM.

Consider `COc1cc2ncnc(OCc3ccc(S(C)(=N)=O)cc3)c2cc1OC` (stereo not drawn) [Compound 14, (4-(((6,7-dimethoxyquinazolin-4-yl)oxy)methyl)phenyl)(imino)(methyl)-λ^6-sulfanone], for which the values for the Ki at ENPP-1 ECD [1] (setting [3]) and at ENPP-1 ECD [1] (setting [4]) were 3 to 300 nM and 15 nM, respectively. Besides, the half-maximal inhibitory concentration (IC50) against ENPP-1 ECD [2] (setting [7]) is 10 to 1000 nM; on ENPP-1 ECD [2] (setting [5]), 110 nM.

`COc1ccc2c(CC(=O)N3CCS(=N)(=O)CC3)ccnc2c1` [Compound 26, 1-imino-4-[2-(7-methoxyquinolin-4-yl)acetyl]-1λ^6-thiomorpholin-1-one]: the half-inhibitory concentration (IC50) was 8800 nM on ENPP-1 ECD [2] (setting [5]) and more than 1000 nM on ENPP-1 ECD [2] (setting [6]).

`COc1ccc2ncc(C#N)c(Oc3ccc(S(C)(=N)=O)cc3)c2c1` (stereo not drawn) [Compound 47, 6-methoxy-4-(4-(S-methylsulfonimidoyl)phenoxy)quinoline-3-carbonitrile]: the IC50 is 10 to 1000 nM on ENPP-1 ECD [2] (setting [7]) and 180 nM on ENPP-1 ECD [2] (setting [5]).

As to `Cc1ccc2ncc(C#N)c(Oc3ccc(S(C)(=N)=O)cc3)c2c1` (stereo not drawn) [Compound 50, 6-methyl-4-(4-(S-methylsulfonimidoyl)phenoxy)quinoline-3-carbonitrile], the values for the IC50 against ENPP-1 ECD [2] (setting [5]) and on ENPP-1 ECD [2] (setting [6]) were 2600 nM and more than 1000 nM, respectively.

As to `COc1cccc2c(Oc3ccc(S(C)(=N)=O)cc3)c(C#N)cnc12` (stereo not drawn) [Compound 58, 8-methoxy-4-(4-(S-methylsulfonimidoyl)phenoxy)quinoline-3-carbonitrile], the concentration for half-maximal inhibition (IC50) on ENPP-1 ECD [2] (setting [7]) was 10 to 1000 nM; against ENPP-1 ECD [2] (setting [5]) it was 51 nM.

As to `COc1cnc2c(Oc3ccc(S(C)(=N)=O)cc3)ccnc2c1` (stereo not drawn) [Compound 76, imino(4-((7-methoxy-1,5-naphthyridin-4-yl)oxy)phenyl)(methyl)-λ^6-sulfanone], the IC50 on ENPP-1 ECD [2] (setting [5]) is 23000 nM; at ENPP-1 ECD [2] (setting [6]), more than 1000 nM.

For `COc1cc2nccc(Oc3ccc(S(C)(=N)=O)cc3)c2cn1` (stereo not drawn) [Compound 77, imino(4-((7-methoxy-1,6-naphthyridin-4-yl)oxy)phenyl)(methyl)-λ^6-sulfanone], the IC50 at ENPP-1 ECD [2] (setting [7]) is 10 to 1000 nM; on ENPP-1 ECD [2] (setting [5]), 57 nM.

Take `COc1ccc2c(-c3ccc(CS(C)(=N)=O)cc3)ccnc2c1` (stereo not drawn) [Compound 88, imino(4-(7-methoxyquinolin-4-yl)benzyl)(methyl)-λ^6-sulfanone]: the IC50 on ENPP-1 ECD [2] (setting [7]) was 10 to 1000 nM; against ENPP-1 ECD [2] (setting [5]), 920 nM.

`COc1ccc2c(Oc3ccc(S(C)(=N)=O)cc3)ccnc2c1F` (stereo not drawn) [Compound 128, {4-[(8-fluoro-7-methoxyquinolin-4-yl)oxy]phenyl}(imino)methyl-λ^6-sulfanone]: the IC50 against ENPP-1 ECD [2] (setting [7]) was 10 to 1000 nM; against ENPP-1 ECD [2] (setting [5]), 310 nM.

On ENPP-1 ECD [2] (setting [5]), `COc1ccc2nccc(Oc3ccc(S(C)(=N)=O)cc3)c2n1` (stereo not drawn) [Compound 130, imino({4-[(6-methoxy-1,5-naphthyridin-4-yl)oxy]phenyl})methyl-λ^6-sulfanone] showed an IC50 of 8100 nM.

Take `CS(=N)(=O)c1ccc(Oc2c(C#N)cnc3cc(F)ccc23)cc1` (stereo not drawn) [Compound 131, 7-fluoro-4-{4-[imino(methyl)oxo-λ^6-sulfanyl]phenoxy}quinoline-3-carbonitrile]: the values for the IC50 on ENPP-1 ECD [2] (setting [5]) and on ENPP-1 ECD [2] (setting [6]) were more than 30000 nM and more than 1000 nM, respectively.

Turning to `COc1cccc2c(OCc3ccc(S(C)(=N)=O)cc3)ccnc12` (stereo not drawn) [Compound 134, imino(4-{[(8-methoxyquinolin-4-yl)oxy]methyl}phenyl)methyl-λ^6-sulfanone], half-maximal inhibition on ENPP-1 ECD [2] (setting [5]) (IC50) required 1100 nM.

With `COc1cccc2c(-c3ccc(CCS(C)(=N)=O)cc3)ncnc12` (stereo not drawn) [Compound 154, imino({2-[4-(8-methoxyquinazolin-4-yl)phenyl]ethyl})methyl-λ^6-sulfanone], the IC50 against ENPP-1 ECD [2] (setting [5]) was 1800 nM; at ENPP-1 ECD [2] (setting [6]) it was more than 1000 nM.

With `CS(=N)(=O)Cc1ccc(-c2ccnc3ccccc23)cc1` (stereo not drawn) [Compound 155, imino(methyl){[4-(quinolin-4-yl)phenyl]methyl}-λ^6-sulfanone], the figures for the IC50 against ENPP-1 ECD [2] (setting [5]) and on ENPP-1 ECD [2] (setting [6]) were 14000 nM and more than 1000 nM, respectively.

For `COc1cc2nccc(N3CCC4(CC3)CCN([S@](C)(=N)=O)C4)c2cc1F` [Compound 205a], at ENPP-1 ECD [1] (setting [8]), the inhibition constant (Ki) was found to be 5 nM.

In the case of `COc1cc2ncnc(N3CC4(CCN(S(C)(=N)=O)CC4)C3)c2cc1OC` (stereo not drawn) [Compound 206, [2-(6,7-dimethoxyquinazolin-4-yl)-2,7-diazaspiro[3.5]nonan-7-yl](imino)methyl-λ^6-sulfanone], on ENPP-1 ECD [1] (setting [4]), the inhibition constant Ki came to 17 nM.

`COc1cc2ncnc(N3CCC4(CC3)CCN(S(C)(=N)=O)CC4)c2cc1OC` (stereo not drawn) [Compound 209, [9-(6,7-dimethoxyquinazolin-4-yl)-3,9-diazaspiro[5.5]undecan-3-yl](imino)methyl-λ^6-sulfanone]: the Ki at ENPP-1 ECD [1] (setting [4]) stood at 17 nM.

For the compound `COc1cc2nncc(N3CCC4(CC3)CCN([S@@](C)(=N)=O)C4)c2cc1OC` [Compound 211b], at ENPP-1 ECD [1] (setting [8]), the Ki is 0.5 nM.

Consider `COc1cccc2c(N3CCC4(CC3)CCN4S(C)(=N)=O)ncnc12` (stereo not drawn) [Compound 214, imino[7-(8-methoxyquinazolin-4-yl)-1,7-diazaspiro[3.5]nonan-1-yl]methyl-λ^6-sulfanone], for which, on ENPP-1 ECD [1] (setting [4]), the Ki was determined as 110 nM.

`COc1cccc2c(N3CCC4(CC3)CCN(S(C)(=N)=O)C4)ncnc12` (stereo not drawn) [Compound 215, imino[8-(8-methoxyquinazolin-4-yl)-2,8-diazaspiro[4.5]decan-2-yl]methyl-λ^6-sulfanone] registered a Ki at ENPP-1 ECD [1] (setting [4]) of 3.8 nM.

Compound `COc1cc2ncnc(N3CCC4(CCN(S(C)(=N)=O)C4)C3)c2cc1OC` (stereo not drawn) [Compound 216, [7-(6,7-dimethoxyquinazolin-4-yl)-2,7-diazaspiro[4.4]nonan-2-yl](imino)methyl-λ^6-sulfanone] showed a Ki on ENPP-1 ECD [1] (setting [4]) of 5.5 nM.

`COc1cc2nccc(N3CCC4(CC3)CCN([S@](=N)(=O)C3CC3)C4)c2cc1F` [Compound 218b]: at ENPP-1 ECD [1] (setting [8]), the Ki is 1.5 nM.

On to `COc1cc2nncc(N3CCC4(CC3)CCN(S(C)(=N)=O)C4)c2cc1Cl` (stereo not drawn) [Compound 219, [8-(6-chloro-7-methoxycinnolin-4-yl)-2,8-diazaspiro[4.5]decan-2-yl](imino)methyl-λ^6-sulfanone], for which the inhibition constant Ki on ENPP-1 ECD [1] (setting [4]) came out at 0.091 nM.

Turning to `COc1cc2nncc(N3CCC4(CC3)CCN([S@@](C)(=N)=O)C4)c2cc1Cl` [Compound 219b], the Ki on ENPP-1 ECD [1] (setting [8]) worked out at 2 nM.

For `COc1cccc2c(N3CC4(CCN([S@](C)(=N)=O)C4)C3)c(C#N)cnc12` [Compound 222b], at ENPP-1 ECD [1] (setting [8]), the Ki is 1.3 nM.

As for `COc1cc2nccc(OC[C@@H]3CCN([S@@](C)(=N)=O)C3)c2cc1F` [Compound 229a], the Ki on ENPP-1 ECD [1] (setting [8]) worked out at 39 nM.

As to `COc1cc2nccc(OC[C@H]3CCN([S@](C)(=N)=O)C3)c2cc1F` [Compound 230a], the inhibition constant Ki on ENPP-1 ECD [1] (setting [8]) came out at 11 nM.

In turn, `COc1ccc2c(COc3cccc(S(C)(=N)=O)c3)ccnc2c1` (stereo not drawn) [Compound 232, imino({3-[(7-methoxyquinolin-4-yl)methoxy]phenyl})methyl-λ^6-sulfanone] displayed a Ki on ENPP-1 ECD [1] (setting [4]) of 3.3 nM.

For `COc1ccc2c(-n3cc4c(n3)CCN(S(C)(=N)=O)C4)ccnc2c1` (stereo not drawn) [Compound 233, imino[2-(7-methoxyquinolin-4-yl)-2H,4H,5H,6H,7H-pyrazolo[4,3-c]pyridin-5-yl]methyl-λ^6-sulfanone], the Ki at ENPP-1 ECD [1] (setting [4]) is more than 500 nM.

For `COc1ccc2c(-n3cc(CCS(C)(=N)=O)cn3)ccnc2c1` (stereo not drawn) [Compound 234, imino({2-[1-(7-methoxyquinolin-4-yl)-1H-pyrazol-4-yl]ethyl})methyl-λ^6-sulfanone], the Ki at ENPP-1 ECD [1] (setting [4]) was more than 500 nM.

Take `COc1ccc2c(OC3CCN(S(C)(=N)=O)CC3)ccnc2c1` (stereo not drawn) [Compound 235, imino({4-[(7-methoxyquinolin-4-yl)oxy]piperidin-1-yl})methyl-λ^6-sulfanone]: the affinity on ENPP-1 ECD [1] (setting [4]), expressed as Ki, was 8 nM.

On to `COc1cc2ncnc(N3CC4(CC(C[S@@](C)(=N)=O)C4)C3)c2cc1OC` [Compound 237a], for which the inhibitory constant (Ki) on ENPP-1 ECD [1] (setting [8]) worked out at 2.4 nM.

Consider `COc1cccc2c(N3CC[C@H](C[S@](C)(=N)=O)C3)ncnc12` [Compound 238b], for which, at ENPP-1 ECD [1] (setting [8]), the Ki was found to be 13 nM.

As for `COc1cccc2c(N3CC[C@@H](C[S@@](C)(=N)=O)C3)ncnc12` [Compound 239b], the Ki on ENPP-1 ECD [1] (setting [8]) worked out at 83 nM.

On ENPP-1 ECD [1] (setting [4]), `COc1ccc2c(O[C@H]3CC[C@H](S(C)(=N)=O)CC3)ccnc2c1` (stereo partly drawn) [Compound 243, imino(methyl)[(1r,4r)-4-[(7-methoxyquinolin-4-yl)oxy]cyclohexyl]-λ^6-sulfanone] yielded an inhibition constant Ki of 4.3 nM.

`COc1cccc2c(N3CC=C(CS(C)(=N)=O)CC3)ncnc12` (stereo not drawn) [Compound 246, imino({[1-(8-methoxyquinazolin-4-yl)-1,2,3,6-tetrahydropyridin-4-yl]methyl})methyl-λ^6-sulfanone] came in with an inhibition constant (Ki) at ENPP-1 ECD [1] (setting [4]) of 19 nM.
